SMILES strings stand for the structures.

Data on 14 compounds can be found in ChEMBL document CHEMBL4665704, “Carneic Acids from an Endophytic Phomopsis sp. as Dengue Virus Polymerase Inhibitors” (J Nat Prod, 2020).

The subject of one assay is MRC5. The experiment in a line: Antiproliferative activity against human MRC5 cells at 10 ug/ml after 72 hrs by resazurin dye-based spectrophotometric analysis relative to control. It counts as functional. Particulars: dose 10 µg/ml.
The subject of assay [1] is Zika virus. Description: Inhibition of NS5 in Zika virus at 10 ug/ml after 10 mins in presence of nucleotide mix by fluorescence assay. Particulars: dose 10.0 µg/ml.
In assay [2] the test system is Zika virus. The experiment in a line: Inhibition of NS5 in Zika virus at 1 ug/ml after 10 mins in presence of nucleotide mix by fluorescence assay. Particulars: dose 1.0 µg/ml.
The test system of assay [3] is Zika virus. Description: Inhibition of NS5 in Zika virus at 50 ug/ml after 10 mins in presence of nucleotide mix by fluorescence assay. Particulars: dose 50.0 µg/ml.
Assay [4] deals with Dengue virus. The experiment in a line: Inhibition of DENV RNA-dependent RNA polymerase at 1 ug/ml. Particulars: dose 1.0 µg/ml.
Assay [5] has as its system Dengue virus. The experiment in a line: Inhibition of DENV RNA-dependent RNA polymerase at 10 ug/ml. To be noted: dose 10.0 µg/ml.
Assay [6] deals with Dengue virus. The experiment in a line: Inhibition of DENV RNA-dependent RNA polymerase at 50 ug/ml. Particulars: dose 50.0 µg/ml.
A short description of assay [7]: Inhibition of DENV RNA-dependent RNA polymerase. Details: species or system Dengue virus.
Assay [8] concerns Dengue virus. Description: Inhibition of DENV RNA-dependent RNA polymerase at 10 uM.

The inhibition is the share of the control response that was lost under treatment. In the assay on MRC5, `CC(=O)OC/C=C(\C)[C@@H]1C(C)=C[C@@H]2C[C@H](O)C[C@H](C)[C@H]2[C@@H]1/C=C/C=C/C(=O)O` gave an Activity of 98.5%. Also, the inhibition came to 3.3% in the assay with Zika virus [1]; 0% with Zika virus [2]; 32% with Zika virus [3]; 4.7% with Dengue virus [4]; 28.9% in the assay on Dengue virus [5]; 52.3% in the assay with Dengue virus [6].

For orientation: IC50 means the midpoint of a concentration-inhibition curve. Take `C/C=C(\C)[C@@H]1C(C)=C[C@@H]2C[C@@H](OC(C)=O)C[C@H](C)[C@H]2[C@@H]1/C=C/C=C/C(=O)O`: the Activity in the assay on MRC5 turned out to be 91.9%. For the same compound, the inhibition is 21.5% in the assay on Zika virus [1]; 1.2% with Zika virus [2]; 47.7% in the assay on Zika virus [3]; 2.8% in the assay on Dengue virus [4]; 62.3% in the assay on Dengue virus [5]; 88.9% in the assay on Dengue virus [6]. The compound further showed an IC50 in assay [7] of 15.5 µM.

Regarding `C/C=C(\C)[C@@H]1C(C)=C[C@@H]2CC(=O)C[C@H](C)[C@H]2[C@@H]1/C=C/C=C/C(=O)O`, in the assay with MRC5, the Activity is 96.9%. The inhibition in the assay with Zika virus [1] was 24.4%; with Zika virus [2], 6.3%; in the assay on Zika virus [3], 49.9%; with Dengue virus [4], 7.9%; with Dengue virus [5] it was 65.6%; in the assay with Dengue virus [6], 85.1%. Further, the IC50 in assay [7] amounted to 11.8 µM.

As for `CC1=C[C@@H]2CC(=O)C[C@H](C)[C@H]2[C@H](/C=C/C=C/C(=O)O)[C@@H]1/C(C)=C/CO`, the Activity in the assay on MRC5 worked out at 100%. The inhibition in the assay with Zika virus [1] is 0%; with Zika virus [2], 0%; in the assay with Zika virus [3] it was 25.5%; with Dengue virus [4], 0%; in the assay on Dengue virus [5], 23.8%; with Dengue virus [6] it was 36.7%.

`CC1=C[C@@H]2C[C@@H](O)C[C@H](C)[C@H]2[C@H](/C=C/C=C/C(=O)O)[C@@H]1/C(C)=C/CO` registered an Activity with MRC5 of 79.3%. Moreover, the inhibition in the assay with Zika virus [1] was 6%; with Zika virus [2] it was 15.2%; with Zika virus [3], 15%; in the assay with Dengue virus [4], 2%; with Dengue virus [5] it was 49%; in the assay on Dengue virus [6] it was 42.8%.

In turn, `CC1=C[C@@H]2CCC[C@H](C)[C@H]2[C@H](/C=C/C=C/C(=O)O)[C@@H]1/C(C)=C/CO` yielded an Activity with MRC5 of 100%. Also, the inhibition with Zika virus [1] amounted to 21%; in the assay with Zika virus [2] it was 0%; in the assay with Zika virus [3] it was 38.3%; in the assay with Dengue virus [4], 13.2%; with Dengue virus [5], 51.2%; in the assay with Dengue virus [6], 75.5%. Further, the IC50 in assay [7] was determined as 37.5 µM.

`C/C=C(\C)[C@@H]1C(C)=C[C@@H]2C[C@@H](O)C[C@H](C)[C@H]2[C@@H]1/C=C/C=C/C(=O)O` registered an Activity in the assay on MRC5 of 97%. Besides, the inhibition was found to be 23.3% in the assay with Zika virus [1]; 9.6% in the assay on Zika virus [2]; 40.9% in the assay with Zika virus [3]; 15.3% in the assay with Dengue virus [4]; 59.4% in the assay on Dengue virus [5]; 78.1% in the assay with Dengue virus [6]. In assay [7], this compound returned an IC50 of 19 µM.

Turning to `C/C=C(\C)[C@@H]1C(C)=C[C@@H]2C[C@H](O)C[C@H](C)[C@H]2[C@@H]1/C=C/C=C/C(=O)O`, in the assay on MRC5, the Activity was found to be 99%. The inhibition stood at 27.6% with Zika virus [1]; 4.9% in the assay with Zika virus [2]; 50.9% in the assay with Zika virus [3]; 6.4% with Dengue virus [4]; 46% with Dengue virus [5]; 85% with Dengue virus [6]. In [7], this compound gave an IC50 of 19 µM.

In the assay on MRC5, `CC1=C[C@@H]2C[C@H](O)C[C@H](C)[C@H]2[C@H](/C=C/C=C/C(=O)O)[C@@H]1/C(C)=C/CO` returned an Activity of 85.8%. The inhibition stood at 5.5% in the assay with Zika virus [1]; 8.5% with Zika virus [2]; 18.4% in the assay on Zika virus [3]; 6.5% in the assay with Dengue virus [4]; 28.7% in the assay on Dengue virus [5]; 43.9% in the assay with Dengue virus [6].

`Nc1ncnc2c1ncn2[C@@H]1O[C@H](COP(=O)(O)OP(=O)(O)OP(=O)(O)O)C[C@H]1O` returned an inhibition in the assay with Dengue virus [8] of 96.1%.

In turn, `CC(=O)OC/C=C(\C)[C@@H]1C(C)=C[C@@H]2CC[C@@H](O)[C@H](C)[C@H]2[C@@H]1/C=C/C=C/C(=O)O` yielded an Activity in the assay on MRC5 of 93.5%. Besides, the inhibition with Zika virus [1] was found to be 18.1%; in the assay with Zika virus [2], 5.4%; in the assay on Zika virus [3] it was 39.6%; in the assay on Dengue virus [4], 26%; in the assay with Dengue virus [5], 40.2%; in the assay with Dengue virus [6], 48.7%.

In turn, `CC1=C[C@@H]2CC[C@@H](O)[C@H](C)[C@H]2[C@H](/C=C/C=C/C(=O)O)[C@@H]1/C(C)=C/CO` returned an Activity in the assay with MRC5 of 98.1%. In addition, the inhibition in the assay on Zika virus [1] was 8%; in the assay on Zika virus [2] it was 4.8%; in the assay with Zika virus [3], 33.7%; in the assay on Dengue virus [4], 0%; in the assay with Dengue virus [5] it was 29.7%; in the assay with Dengue virus [6], 42%.

Consider `CC(=O)OC/C=C(\C)[C@@H]1C(C)=C[C@@H]2CC[C@H](O)[C@H](C)[C@H]2[C@@H]1/C=C/C=C/C(=O)O`, for which the Activity in the assay on MRC5 came out at 95.6%. Moreover, the inhibition in the assay on Zika virus [1] was found to be 20.7%; with Zika virus [2], 3%; in the assay with Zika virus [3], 56.3%; in the assay with Dengue virus [4], 10.5%; in the assay on Dengue virus [5], 61%; in the assay with Dengue virus [6], 85.4%. Moreover, in assay [7], the IC50 was determined as 13.6 µM.

In turn, `CC(=O)OC/C=C(\C)[C@@H]1C(C)=C[C@@H]2CC(=O)C[C@H](C)[C@H]2[C@@H]1/C=C/C=C/C(=O)O` registered an Activity with MRC5 of 98.8%. In addition, the inhibition amounted to 19.3% in the assay with Zika virus [1]; 13.8% in the assay on Zika virus [2]; 25.4% in the assay with Zika virus [3]; 0% in the assay with Dengue virus [4]; 36.4% in the assay with Dengue virus [5]; 64.6% in the assay with Dengue virus [6].
